{"source": "patent US5861424A", "about": "“Composition and method for treating cancer” (priority 1995, dated 1999)", "key": {"human melanoma LOX": {"tested_on": "human melanoma LOX", "assay": "Survival of nude mice implanted with human melanoma LOX", "type": "in vivo, human melanoma in male athymic Swiss nu/nu mouse", "conditions": "Mus musculus, ip, 24 h, 20 mg/kg, i.p. on day 1, 2, 3, 4, 8, 9; read-out: T/C (survival)", "experimental": "LOX, a human melanoma cell line, grown subcutaneously in nude mice was excised, trypsinized to yield a single cell suspension using a metal grid with a […]. Red blood cells were lysed by incubation with 0.17 molar ammonium chloride at 4° C. for 20 minutes. Five million viable trypan blue negative cells made up in 0.1 ml of Dulbecco modified Eagles' medium (DME) were injected into the peritoneal cavity of a male athymic Swiss nu/nu mouse. The control group and each treatment group consisted of 5 to 10 mice. Treatment was commenced the following day by intraperitoneal injection.\nTen control mice received 0.25 ml of 2% dextrose on those days the treated groups were injected with the compounds of this invention. The compounds of the General Formulas. (1) to (6) used in this invention which were tested are listed in Table VIII below and the results obtained are shown in Table VIII and FIG. 1-6 of the accompanying drawings. T/C is the ratio, expressed as a percentage of the mean survival age of the treated group to the mean survival age of the untreated control group."}, "[1]": {"tested_on": "human ovarian carcinoma OVCAR-3", "assay": "Survival of nude mice implanted with human ovarian carcinoma OVCAR-3", "type": "in vivo, human ovarian carcinoma in athymic Swiss nu/nu mice", "conditions": "20 mg/kg, i.p. on day 1, 5, 9, 14, 23, 48", "experimental": "A human ovarian carcinoma cell line, OVCAR-3, was used. Ten million cells of this cell line were injected IP into ten athymic Swiss nu/nu mice. Ten mice into which these cancer cells had been injected were selected as a control group and received in equal volume of 5% dextrose as that of the treated group. The compounds of the General Formulas (1) to (6) which were tested and the results obtained are shown in Table IX below and in FIG. 7-9 of the accompanying drawings."}, "[2]": {"tested_on": "human colon carcinoma CX-1", "assay": "Anti-human colon carcinoma CX-1 activity in nude mice, tumor inhibition", "type": "in vivo, human colon carcinoma in Swiss nu/nu mice", "conditions": "Mus musculus, ip, 24 h, 20 mg/kg, i.p. on day 1, 5, 11, 15, 20, 26, 34", "description": "Human colon carcinoma cell line CX-1 has been chosen by the National Cancer Institute as a mode for cancer drug screening (NCI Protocol 3C2H2). It was established in culture from the surgical explant of the primary colon adenocarcinoma of a person with no previous chemotherapy. The cultured CX-1 cells, upon subcutaneous injection, can grow readily in nude mice as a moderately- to well-differentiated human colon carcinoma. CEA is expressed as expected for differentiated colon carcinoma cells. Abundant keratin, consistent with epithelial origin, is present. Increased uptake and prolonged retention of delocalized lipophilic cations are observed.\nSwiss nu/nu mice obtained from Taconic Farm were housed in a pathogen-free environment. Tumors subcutaneously passaged in nude mice were excised under sterile conditions and converted to a single cell suspension using a metal grid with a 0.4 mm mesh. Red blood cells were lysed by incubation with 0.17M ammonium chloride at 4° C. for 20 minutes. Cells were scored for viability with trypan blue. Viable CX-1 cells (2.5 million) made up in 0.1 ml of cell culture medium were injected subcutaneously into each nude mouse. The mice were randomly allocated into a control group (five mice) and a treatment group (five mice per group). The drug treatment was commenced the next day. Doses and schedules were developed empirically and were based mainly on information on LD50 and LD10 obtained from preliminary toxicity studies. The control group received an equivalent volume of hydroxylpropyl-β-cyclodextrin-5% glucose solution.\nThe pharmaceutical compositions tested comprised solutions in 5% glucose subjected to sonication at concentrations of 1 mg/ml. Those compounds which were not completely dissolved by this procedure were dissolved in hydroxypropyl-β-cyclodextrin using the following method. Hydroxypropyl-β-cyclodextrin (45 g) was mixed with 100 ml of sterilized, double distilled water and stirred for four hours. Each of the compounds to be tested (20 mg) was mixed with 10 ml of hydroxypropyl-β-cyclodextrin solution and sonicated for 60 minutes in the dark. This solution was then diluted in 5% glucose to yield a final compound concentration of 0.5 mg/ml, and further sonicated for 60 minutes in the dark to assure that the compound was completely dissolved.\nWhen the growth of tumors in the control group reached the exponential phase and the size of the tumor was palpable (usually 20 to 30 days after tumor implantation), the experiments were terminated. Tumors in each mouse were excised and weighed using an analytical balance. Total tumor weight in each group from five mice was calculated. Per cent tumor inhibition between the treated group and the control group was then calculated for each group."}, "[3]": {"tested_on": "human colon carcinoma cell line CX-1", "assay": "Colony formation assay, human colon carcinoma CX-1", "type": "cell-based", "method": "(§1) Human colon carcinoma cell line CX-1 or normal monkey kidney epithelial cell line CV-1 was chosen as representatives of cancer cells and normal cells, respectively. […] CX-1 cells (2,000 cells/well) and CV-1 cells (1,000 cells/well) were plated in 24-well plastic culture plates. […] The control received culture media only. Cells were treated with compounds of General Formulas (1) to (6) at 37° C. for 24 hours. After rinsing with fresh culture medium three times, the cells were further incubated at 37° C. for 7 to 10 days. Cell colonies were fixed and stained with 2% crystal violet in 70% ethanol for 10 minutes and rinsed in water. […] The selectivity is defined as the ratio of IC50 for CV-1 and IC50 for CX-1."}, "[4]": {"tested_on": "normal monkey kidney epithelial cell line CV-1", "assay": "Colony formation assay, normal monkey kidney epithelial cells CV-1;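 also: colonies visualized by crystal violet staining, incubation at 37 °C, IC50 relative to untreated wells given culture medium alone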", "conditions": "Primates, Epithelial cell, read-out: CV-1 (IC50), Table III; 24 h treatment, colony count after 7 to 10 days", "method": "as §1"}}, "data": [{"smiles": "CCN1C(=CC=c2sc(=Cc3cc[n+](CC)c4ccccc34)n(CC)c2=O)C=Cc2ccccc21", "note": "[Compound 247]", "values": [{"measurement": "response vs control in vivo at 20 mg/kg", "setting": "human melanoma LOX", "value": 227, "unit": "%"}, {"measurement": "T/C (survival)", "setting": "[1]", "value": "> 378", "unit": "%"}, {"measurement": "inhibition in vivo at 20 mg/kg", "setting": "[2]", "value": 75, "unit": "%"}, {"measurement": "IC50", "setting": "[3]; Homo sapiens, Colon carcinoma cell, read-out: CX-1 (IC50), Table III, 24 h treatment, colony count after 7 to 10 days", "value": 0.1, "unit": "µg/mL"}, {"measurement": "Selectivity (ratio of IC50 for CV-1 and IC50 for CX-1)", "setting": "[3]; Table III, CV-1/CX-1", "value": 200}, {"measurement": "IC50", "setting": "[4]", "value": 20, "unit": "µg/mL"}]}]}
